The source of these data is patent US7108865B2, “Controlled-release dosage forms of azithromycin” (Pfizer Inc, priority 1994, dated 2006).

A short description of data set [1]: clinical. To be noted: male, human, in vivo. The source says:
Healthy male subjects were divided into two groups. Group A received a 2 g azithromycin dose administered directly into the duodenum as a solution via a nasoenteric tube. Group B received the same azithromycin solution dose, administered directly into the ileocecal region of the small intestine via a nasoenteric tube. The nasoenteric tube was a single lumen, 4.5 meter tube with a side port for delivery of drug. Placement of the tube for duodenal and ileocecal delivery was confirmed by fluoroscopy. Infusions to the duodenum or ileocecal region were administered at a concentration of 40 mg/ml within 5 minutes. All subjects were dosed after an overnight fast. Subjects were randomized to receive azithromycin and placebo via nasoenteric tube and intravenous infusion in a double-blind, placebo controlled fashion.
Blood samples were withdrawn prior to dosing, and at 0.08, 0.17, 0.33, 0.66, 1, 2, 4, 8, 12, 24, 48, 72, and 96 hr post-dosing. Serum azithromycin concentrations were determined using the high performance liquid chromatography assay described in Shepard et al., J. Chromatography, 565: 321–337, (1991). Total systemic exposure to azithromycin was determined by measuring the area under the serum azithromycin concentration vs. time curve (AUC) for each subject in a given group, and then by calculating a mean AUC for the group. Cmax is the highest serum azithromycin concentration achieved in a subject. Tmax is the time at which Cmax is achieved. In one leg of this study, all subjects received an intravenous 2g azithromycin dose. The intravenous AUC was determined in order to calculate the absolute duodenal and ileocecal bioavailabilities, as described below.

Data set [2] can be described thus: Serum azithromycin pharmacokinetics after 2 hr intravenous infusion (Example 3). It is filed as in vivo. To be noted: male, human, 2 hr infusion. As to the method: Healthy male subjects were divided into four groups. Group A received a 2 hr intravenous infusion of a placebo solution (0 g azithromycin). Group B received a 2 hr intravenous infusion of a 1 g dose of azithromycin. Group C received a 2 hr intravenous infusion of a 2 g dose of azithromycin. Group D received a 2 hr intravenous infusion of a 4 g dose of azithromycin. […] All subjects were dosed after an overnight fast.
Tmax is the time at which Cmax is achieved.

The nature of data set [3]: Recovery of azithromycin in ileostomy fluid after IV infusion in ileostomy subjects. It is filed as in vivo, human. As to conditions: 500 mg IV infusion over 1 hr, twelve ileostomy subjects, 24 hr following dose. The source says:
A 2.0 g intravenous azithromycin dose is equivalent to a 5.4 g oral azithromycin dose, from the standpoint of equivalent systemic drug exposure. At an even higher intravenous dose, a higher side effect incidence is observed. While GI side effects can be elicited by high intravenous doses, these observations are consistent with the statement that azithromycin GI side effects are mediated by direct contact of the drug with the intestinal wall in the lumen, based upon the following additional study. Twelve ileostomy subjects were administered an IV infusion of 500 mg azithromycin over 1 hr. Serum was collected predose and at 0.17, 0.33, 0.5, 1, 2, 4, 8, 12, 24, 48, 72, 96, 120, and 144 hr following initiation, of the infusion. In addition, the contents of the subjects' ileostomy bags were collected for the following intervals: 12 hr predose, 0–6 hr post-dose, 6–12 hr post-dose, and 12–24 hr post-dose. The serum and ileostomy fluid concentrations of azithromycin were assayed. […] Thus it is not surprising that high intravenous doses of azithromycin can cause gastrointestinal side effects, since a portion of the IV dose partitions into the lumen of the small intestine.

The conditions of data set [4]: 3,995 patients, all dose levels combined, cited from earlier work.
The conditions of data set [5]: human body; cited from earlier work.
The conditions of data set [6]: cited from earlier work.

A word on the bioavailability: it is dose-corrected exposure relative to a reference, in per cent. The AUC(0-t) is exposure summed from dosing to a finite time, without extrapolation to infinity. A word on the AUC(0-inf): it is the area under the concentration-time curve extrapolated to infinity. What is called Cmax is the maximum level reached in the sampled fluid or tissue. As a reminder, the Tmax is the time from dosing to the highest level. Take `CC[C@H]1OC(=O)[C@H](C)[C@@H](O[C@H]2C[C@@](C)(OC)[C@@H](O)[C@H](C)O2)[C@H](C)[C@@H](O[C@@H]2O[C@H](C)C[C@H](N(C)C)[C@H]2O)[C@](C)(O)C[C@@H](C)CN(C)[C@H](C)[C@@H](O)[C@]1(C)O` [azithromycin, 9a-aza-9a-methyl-9-deoxo-9a-homoerythromycin A]: in data set [1], the “AUC0–96” value amounted to 14500 ng·h/mL, the bioavailability was found to be 39.1%, the “bioavailability for duodenal dosing (AUCduodenal/AUCIV×100)” value came out at 43.8% and the “overall systemic exposure (AUC) lower for ileocecal dosing compared with duodenal dosing” value is listed as 15%. This compound also yielded an AUC(0-t) in data set [1] (AUC0–96) of 17000 ng·h/mL. In data set [2] (1.0 g total IV dose, n = 6), the AUC(0-inf) was 23400 ng·h/mL, the Cmax is 3110 ng/mL and the Tmax was 1.9 h. In addition, in data set [2] (2.0 g total IV dose, n = 6), the AUC(0-inf) was 45600 ng·h/mL, the Cmax was determined as 6840 ng/mL and the Tmax worked out at 1.8 h. For the same compound, in data set [2] (4.0 g total IV dose, n = 5), the AUC(0-inf) was 82100 ng·h/mL, the concentration peaked (Cmax) at 9910 ng/mL and the Tmax came out at 1.1 h. Besides, the “dose recovered intact in the ileostomy fluid” value in data set [3] is on record as 13%. For the same compound, the “patients reporting gastrointestinal side effects” value in data set [4] (oral) is reported as 9.6%. Besides, in data set [4], the “incidence of abdominal pain” value is 2.5%, the incidence of diarrhea is given as 3.6% and the incidence of nausea is listed as 2.6%. The elimination half-life entry in data set [5] is reported as “about 69 hours”. Also, the “oral bioavailability of an azithromycin capsule” value in data set [6] (typical value) is listed as “about 38%”. Moreover, in data set [6] (used to convert intravenous to equivalent oral doses), the oral bioavailability is 37%.
